From patent US20100248321A1, “SURFACTANT AMENDMENTS FOR THE STIMULATION OF BIOGENIC GAS GENERATION IN DEPOSITS OF CARBONACEOUS MATERIALS” (LUCA Technologies, Inc., priority 2009, published 2010)

What was measured:
[1] = tested on: coal samples from the Powder River Basin in Wyoming; assay: biogenic methane generation from coal samples after surfactant amendment; parameters: species or system microbial consortia present in coal and associated waters; conditions: after more than 100 days; headspace methane by gas chromatograph; surfactants tested at 0.05 to 0.5 g/L; 2.5 gram coal, 15 mL formation water
Description: (§1) Experiments were conducted to compare biogenic methane generation from coal samples after introducing an amendment of a surfactant. For each experiment, methane generation from coal samples from the Powder River Basin in Wyoming and shale samples from the Antrim Shale in Michigan was periodically measured over the course of more than 100 days. Each 2.5 gram coal sample or 5 g shale sample was placed in a 30 ml serum bottle with 15 mL of water that was also taken from the formation. The coal or shale and formation water were placed in the serum bottle while working in an anaerobic glove bag. The headspace in the bottle above the sample was flushed with a mixture of N2 and CO2 (95/5).
(§2) Amendments were then added to the samples. Surfactants were tested at concentrations of 0.05 to 0.5 g/L. Surfactants were tested alone and in combination with other amendments, including proteins (e.g., yeast extract), phosphate and acetate. The samples were then sealed, removed from the glove bag, and stored at a temperature close to the in situ temperature for the coal or shale samples over the course of the experiments.
(§3) The methane levels in the headspace above the samples was periodically measured and recorded. The methane was measured by running samples of the headspace gases through a gas chromatograph equipped with a thermal conductivity detector.

[2] = tested on: shale samples from the Antrim Shale in Michigan; assay: biogenic methane generation from shale samples after surfactant amendment; parameters: species or system microbial consortia present in shale and associated waters; conditions: after more than 100 days; headspace methane by gas chromatograph; surfactants tested at 0.05 to 0.5 g/L; 5 g shale, 15 mL formation water
Description: as §1, §2, §3

| Compound | methane production in coal containing bottles [1] | methane production in shale containing bottles [2] |
| --- | --- | --- |
| CCCCCCCC/C=C\CCCCCCCC(=O)N(C)CCS(=O)(=O)[O-].[Na+] [Geropon T-77] | highest levels of methane production |  |
| Benzalkonium chloride | highest levels of methane production |  |
| CCCCOCCO [2-butoxyethanol] | highest levels of methane production | highest levels of methane production |
